Assay results published in patent publication US20220370445A1, “METHODS FOR ADMINISTERING (R)-N-[4-(1,4,5,6-TETRAHYDRO-6-OXO-3-PYRIDAZINYL)PHENYL]ACETAMIDE” (ORION CORPORATION, priority 2019, published 2022).
Counter-ions that a name gives are not always drawn.

Columns and labels:
heart rate = test: Effect of compound (I) alone or together with ivabradine on heart rate by oromucosal administration (telemetry); assay type: in vivo, Beagle dogs
Experimental: Male beagle dogs (n=3) were given a dose of compound (I) using oromucosal gel according to Formulation Example 3a alone (dosing period 1) or together with a dose of ivabradine using oromucosal gel according to Formulation Example 3c (dosing period 2). The dose of compound (I) was 18.5 μg/kg and the dose of ivabradine was 1 mg/kg (calculated as ivabradine base). Each dose was divided into two sites on gingival mucosa. The washout period between the dosing periods was at least 6 days. Heart rate of the animals was assesses at baseline and post-dosing using telemetry acquisition system.

[1] = Bioavailability of compound (I) by ocular, intranasal or oromucosal administration vs i.v. in dogs; assay type: in vivo; settings: Beagle dogs; for bioavailability: dog, plasma, n=6
Experimental: (§1) Bioavailability of compound (I) given by ocular (4 μg/kg), intranasal (4 μg/kg) or oromucosal dosing (5 μg/kg) was compared to 4 μg/kg intravenous (i.v.) administration in Beagle dogs.
The study was a crossover study with at least 6 days washout period between the treatment periods. The animals were fasted overnight before dosing by withdrawing the remaining feed (if any) at least 12 h before dosing. On dosing days, food was offered approximately at 4 h after dosing (after the 4 h blood sampling).
(§2) Composition of Formulation Example 1 was used for ocular administration, composition of Formulation Example 2 was used for intranasal administration and composition of Formulation Example 3 was used for oromucosal administration.
(§3) Ocular and intranasal doses were divided equally to both eyes or both nostrils. Oromucosal gel formulation was administered to buccal/gingival mucosa of the dog. The intravenous dose was administered in cephalic vein in slow i.v. bolus dosed within 30 seconds. Blood samples were collected into K2EDTA tubes over a 48 h period after each treatment at the following time points: predose, 2 min, 5 min, 10 min, 20 min, 30 min, 45 min, 1 h, 2 h, 4 h, 6 h, 8 h, 12 h, 24 h and 48 h post administration. Aliquots of plasma were prepared and stored frozen until analysis. Compound (I) concentration in plasma was determined using Liquid chromatography-triple quadrupole mass spectrometry. The lower limit of quantification for compound (I) in dog plasma was 0.1 ng/ml.

[2] = Local tolerance of compound (I) given by ocular, intranasal or oromucosal administration to dogs; assay type: in vivo; settings: any administration route (ocular, intranasal, oromucosal), Beagle dogs
Experimental: Experiment 1. Bioavailability and Local Tolerance of Compound (I) Given by Ocular, Intranasal or Oromucosal Administration to Dogs.
as §1, §2, §3

[3] = Bioavailability of compound (I) given by oropharyngeal aspiration to rats vs i.v.; assay type: in vivo, Male Sprague Dawley rats; settings: for bioavailability: male, Sprague Dawley, rat, plasma, other: oropharyngeal aspiration, read-out: bioavailability of oropharyngeal administration
Experimental: Oropharyngeal aspiration administration has been developed as an alternative technique for the inhaled delivery of medicaments to the lungs and provides a means to mimic human lung exposure of medicaments by inhalation (Hulland, K. et al., American Journal of Respiratory and Critical Care Medicine 2016, 193:A5928 and Barbayianni, I. et al., Frontiers of Medicine, September 2018, Vol 5, Article 269, 1-6).
Bioavailability of compound (I) given by oropharyngeal aspiration (dosing 10 or 20 μg/kg) was compared to 10 μg/kg intravenous (i.v.) administration in Male Sprague Dawley rats.
Composition for oropharyngeal dosing was as follows:
The oropharyngeal dose was administered to animals which were lightly anaesthetized by isoflurane inhalation. The animals were placed on a vertical stand the top teeth hooked over a rubber band to open the mouth. The 100 μl dose was dispensed by positive displacement pipette at the back of the throat of the animal while holding the tongue to prevent swallowing and nose held to encourage breathing through the mouth for (at least) 3 breaths. The nose released but tongue continually held for an additional couple of breaths to ensure solution deposited in the lungs and not swallowed. All animals recovered consciousness post dose.
The intravenous dose was administered as a slow bolus injection over 30 seconds via the lateral tail vein.
Blood samples were collected into a K2EDTA tube such as to obtain a sample after 5 min, 15 min, 30 min, 1 h, 3 h, 5 h, 8 h, 12 h, 24 h and 48 h post administration.
Aliquots of plasma were prepared and stored frozen until analysis. Compound (I) concentration in plasma was determined using a liquid chromatography-tandem mass spectrometry (LC-MS/MS). The lower limit of quantification for compound (I) in rat plasma was 0.02 ng/ml.

[4] = in man; cited from earlier work

Row | Compound | prevention of heart rate increase induced by compound (I) (heart rate; oromucosal 1 mg/kg concurrent with compound (I) 18.5 μg/kg oromucosal, beagle dogs) | bioavailability ([1]; other: intranasal (drops), 4 ug/kg, intranasal drops 4 μg/kg vs 4 μg/kg i.v.) [%] | bioavailability ([1]; other: ocular (eye drops), 4 ug/kg, eye drops, ocular 4 μg/kg vs 4 μg/kg i.v.) [%] | bioavailability ([1]; other: oromucosal (gel to buccal/gingival mucosa), 5 ug/kg, oromucosal gel 5 μg/kg vs 4 μg/kg i.v.) [%] | absorption ([1]; ocular drops, intranasal drops or oromucosal gel) | irritation (local tolerance) [2] | bioavailability ([3]; oropharyngeal 0.01 mg/kg vs 0.01 mg/kg i.v.) [%] | bioavailability ([3]; oropharyngeal 0.02 mg/kg vs 0.01 mg/kg i.v.) [%] | absorption ([3]; oropharyngeal route) | heart rate after dosing (heart rate; oromucosal gel 18.5 μg/kg alone, male beagle dogs n=3, baseline 93±9 bpm) [bpm] | elimination half-life [4]
1 | COc1cc2c(cc1OC)CC(=O)N(CCCN(C)C[C@H]1Cc3cc(OC)c(OC)cc31)CC2 [ivabradine hydrochloride, reference compound] | completely prevent the heart rate increase | – | – | – | – | – | – | – | – | – | –
2 | CC(=O)Nc1ccc(C2=NNC(=O)C[C@H]2C)cc1 [Compound (I), (R)—N-[4-(1,4,5,6-tetrahydro-4-methyl-6-oxo-3-pyridazinyl)phenyl]acetamide] | – | 82 | 67 | 78 | fast absorption comparable to intravenous administration | No significant irritation | 94.9 | 97.1 | fast absorption comparable to intravenous administration | 167±8 | about 72 h
